Legend:
[1] = target: T1, GppNHp-loaded KRAS4b (amino acids 1-169) G12C/C118S (Homo sapiens, UniProt P01116, C118S/G12C); assay: MALDI-TOF MS covalent Cys12 modification, GppNHp-loaded KRAS G12C; format: binding; conditions: 15 minutes reaction time, 1 μM protein, 1:2.5 protein to compound ratio
T1 construct: KRAS4b (amino acids 1-169) G12C/C118S protein; made in house
Experimental: (§1) MALDI-TOF MS analysis was performed using 1 μM protein target, and 1:2.5 protein to compound ratio was used.
(§2) Reaction: 1 μM of GppNHp, GTP, or GDP-loaded KRAS4b (amino acids 1-169) G12C/C118S protein (produced in-house by Protein Expression Laboratory, FNLCR/Leidos Biomed) in 20 mM 4-(2-hydroxyethyl)-1-piperazineethanesulfonic acid (HEPES) buffer containing 150 mM NaCl, 1 mM MgCl2, pH 7.3 was prepared freshly before assay. Ten-μL aliquots of protein were dispensed onto low volume 384-well plate, then 375 nL DMSO, and 25 nL of tested compounds from 5 mM DMSO stocks were added to appropriate wells using ECHO 555 acoustic liquid handler (Labcyte Inc.). For each reaction/assay, three blanks were prepared by mixing 10 μL of protein solution with 400 nL DMSO. The contents of the wells were carefully mixed by aspiration, and then each plate was sealed with an adhesive cover, centrifuged at 2000 g for 1 minute, and kept in the dark at room temperature until 5 min, 15 min, 30 min, 2 h, or 6 h collections.
(§3) Target pretreatment: Before each assay MALDI target (Bruker MPT 384 ground steel BC) was pre-treated by pipetting on each spot 0.75 μL of saturated sinapinic acid in acetonitrile (ACN).
(§4) Sample preparation: At collection time point, 2 μL of reaction mixtures were pipetted out into 20 μL MALDI matrix solution (saturated solution of sinapinic acid in 1:1 ACN:water solution containing 0.75% trifluoroacetic acid (TFA)) deposited on 384 well polypropylene plate. Resulting solution was mixed by aspiration, centrifuged at 2000 g for 1 minute, then 1 μL aliquots were dispensed on pre-treated MALDI target using Beckman Coulter Biomek FX^P 96/384-Span-8 Laboratory Automation Workstation. Finally, the MALDI target was dried under mild vacuum to produce spots with fine crystalline structure.
(§5) Measurements: MALDI-TOF measurements were performed on a Bruker Daltonics rapifleX Tissuetyper TOF-TOF mass spectrometer using linear mode and mass range from 18.6 to 21.6 kDa. Detector gain was set to 3.3× (483 V), sample rate to 5 GS/s, real time smoothing to medium (175 MHz), laser smart beam pattern was set to: “MS Thin Layer M5”, and the laser frequency was 10000 Hz. Spectra were automatically collected using custom AutoXecute method. Laser power was auto adjusted using fuzzy control. The peak selection range was set to be between 19000 and 21500 Da. Peak evaluation uses half width parameter set to be smaller than 40 Da for processed spectrograms (centroid peak detection: smoothed by SavitzkyGolay algorithm using 7 m/z width and 2 cycles; baseline was subtracted using median algorithm with flatness 1 and median level 0.01). Fuzzy control used Proteins/Oligonucleotides protocol with minimum half width 1/10 times above threshold. Up to 40000 satisfactory shots were collected in 10000 shot steps. Dynamic termination was implemented to finish data collection when peak signal/noise ratio reached a value of 50.
(§6) Spectra processing: Spectra were smoothed by SavitzkyGolay algorithm using 7 m/z width and three cycles. Centroid peak detection algorithm was used with signal to noise threshold set to 6, relative intensity threshold 4%, peak width 10 m/z and median baseline subtraction using flatness of 1 and median level of 0.01. Peak intensity and area under the peak were evaluated and recorded for all peaks between 19,300 Da and 21,550 Da.
(§7) Calculation of percent modification: Percent modification was calculated as a ratio of peak height for protein modified by compound to sum of peak height of remaining protein plus peak height for protein modified by compound. If multiple modifications were observed each was calculated as a ratio of peak height for given modification versus sum of peak heights for all observed protein species. Data reported in Table 5 are from the 15 minutes reaction time point.

[2] = target: T2, GTP-loaded KRAS4b (amino acids 1-169) G12C/C118S (Homo sapiens, UniProt P01116, C118S/G12C); assay: MALDI-TOF MS covalent Cys12 modification, GTP-loaded KRAS G12C; format: binding; conditions: 15 minutes reaction time, 1 μM protein, 1:2.5 protein to compound ratio
T2 construct: KRAS4b (amino acids 1-169) G12C/C118S protein; made in house
Experimental: as §1, §2, §3, §4, §5, §6, §7

[3] = target: T3, GDP-loaded KRAS4b (amino acids 1-169) G12C/C118S (Homo sapiens, UniProt P01116, C118S/G12C); assay: MALDI-TOF MS covalent Cys12 modification, GDP-loaded KRAS G12C; format: binding; conditions: 15 minutes reaction time, 1 μM protein, 1:2.5 protein to compound ratio
T3 construct: KRAS4b (amino acids 1-169) G12C/C118S protein; made in house
Experimental: as §1, §2, §3, §4, §5, §6, §7

[4] = target: T4, Avi-KRAS G12C (1-169) GppNHp/RAF1 RBD-3×FLAG (52-151) (Homo sapiens, UniProt P01116, G12C); assay: KRAS G12C-effector (RAF1 RBD) protein:protein interaction HTRF disruption assay; format: biochemical; conditions: PPI HTRF
T4 construct: Avi-KRAS G12C (1-169) GppNHp
How it was run: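 TR-FRET disruption read-out (excitation 320 nm, emission 615 nm), expressed relative to DMSO set at 100% activity, over a 3-fold compound series of 30-0.02 μM. Tris pH 7.5 buffer with 5 mM MgCl2, 0.1% BSA and 10% DMSO. GppNHp-bound KRAS G12C (50 nM), then RAF1 RBD (75 nM), then detection reagents, each incubated 1 h at RT.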

[5] = test system: pERK in NCI-H358 cells; assay: Cell-based pERK HTRF assay; conditions: Homo sapiens, 0.5 h, 30 min incubation
Experimental: pERK HTRF assays (Perkin Elmer) were used to determine the effectiveness of compounds of the present disclosure in disrupting KRAS G12C protein/effector signaling in cells.
On Day 1, cells (NCI-H358) were seeded into 96-well plates at 4×10^4 cells/well in complete growth media (RPMI, 10% FBS).
On Day 2, cells were treated with compounds at 0.25% DMSO. The source plate was created with compounds diluted in media at 5-fold the final assay concentration. The compounds were run in a 9-point concentration curve starting at 75 μM, with a 3-fold dilution between concentrations. 20 μL was transferred onto the cell plates (final volume in wells was 100 μL). Plates were harvested after 30 min incubation by aspirating media and adding kit-supplied 1× supplemented lysis buffer to all wells (75 μL per well). Plates were then placed on a plate shaker and incubated at 850 rpm for an additional 30 min.
Antibody mixture solution was prepared by diluting aliquoted d2 and Eu Cryptate antibodies 1:20 in kit supplied detection buffer, then mixed the diluted antibodies solutions (1:1 v:v). 4 μL of this solution was then added to a 384-well detection plate (Perkin Elmer; 6008230).
Samples were homogenized by pipetting up and down and then transferred (16 μL of cell lysates) from the 96-well cell culture plate to two wells of the HTRF 384-well detection plate containing the antibody solution. Plates were centrifuged (524 g for 1 min) and allowed to incubate between 4 and 24 h at room temperature. Maximum signal is reached after 4 h incubation time and remains stable over a period of 24 hours. Therefore, readings can be made between 4 and 24 h of incubation. Plates were centrifuged again (524 g for 1 min) and analyzed on the EnVision plate reader using the following settings: Excitation 320 nm, Bandwidth 75 nm; Emission 615 nm, Bandwidth 85 nm; Gain 100%; Flashes 100; Lag 60 μs.

| GppNHp-KRAS G12C percent of modification [1] | GTP-KRAS G12C percent of modification [2] | GDP-KRAS G12C percent of modification [3] | IC50 [4] [nM] | IC50 [5] [nM] | SMILES |
| --- | --- | --- | --- | --- | --- |
| A (percent of modification ≥70%) | A (percent of modification ≥70%) | A (percent of modification ≥70%) | ≤ 500 | 100 to 1000 | C=CC(=O)N1CCC(N(CC)c2nc(OC[C@@]34CCCN3C[C@H](F)C4)nc3c(Cl)c(-c4ccc(F)c5sc(N)c(C#N)c45)ncc23)[C@H]1COC (stereo partly shown) [Compound 30] |
| A (percent of modification ≥70%) | A (percent of modification ≥70%) | A (percent of modification ≥70%) | ≤ 500 | ≤ 100 | C=CC(=O)N1CCC(N(CC)c2nc(OC[C@@]34CCCN3C[C@H](F)C4)nc3c(Cl)c(-c4ccc(F)c5sc(N)c(C#N)c45)ncc23)[C@H]1C (stereo partly shown) [Compound 37] |
| A (percent of modification ≥70%) | A (percent of modification ≥70%) | A (percent of modification ≥70%) | ≤ 500 | 100 to 1000 | C=CC(=O)N1CC[C@@H](N(CC)c2nc(OC[C@@]34CCCN3C[C@H](F)C4)nc3c(Cl)c(-c4ccc(F)c5sc(N)c(C#N)c45)ncc23)[C@H]1CC [Compound 43] |
| D (percent of modification <10%) | D (percent of modification <10%) | A (percent of modification ≥70%) | 500 to 5000 | 100 to 1000 | C=CC(=O)N1CC[C@@H](N(CC)c2nc(OC[C@@]34CCCN3C[C@H](F)C4)nc3c(F)c(-c4ccc(F)c5sc(N)c(C#N)c45)ncc23)[C@@H]1CC [Compound 48] |
| C (10%≤percent of modification <50%) | D (percent of modification <10%) | A (percent of modification ≥70%) | 500 to 5000 | 100 to 1000 | C=CC(=O)N1CC[C@@H](N(C)c2nc(OC[C@@]34CCCN3C[C@H](F)C4)nc3c(F)c(-c4ccc(F)c5sc(N)c(C#N)c45)ncc23)[C@@H]1CC [Compound 44] |

Continued, compound first:

| SMILES | GppNHp-KRAS G12C percent of modification [1] | GTP-KRAS G12C percent of modification [2] | GDP-KRAS G12C percent of modification [3] | IC50 [4] [nM] | IC50 [5] [nM] |
| --- | --- | --- | --- | --- | --- |
| C=CC(=O)N1CCC(N(CC)c2nc(OC[C@@]34CCCN3C[C@H](F)C4)nc3c(F)c(-c4ccc(F)c5sc(N)c(C#N)c45)ncc23)[C@H]1C (stereo partly shown) [Compound 19] | A (percent of modification ≥70%) | A (percent of modification ≥70%) | A (percent of modification ≥70%) | ≤ 500 | ≤ 100 |
| C=CC(=O)N1CC[C@@H](N(C)c2nc(OC[C@@]34CCCN3C[C@H](F)C4)nc3c(F)c(-c4c(F)cc(F)c5sc(N)nc45)ncc23)C1 [Compound 5] | A (percent of modification ≥70%) | A (percent of modification ≥70%) | A (percent of modification ≥70%) | ≤ 500 | ≤ 100 |
| C=CC(=O)N1CCC(N(C)c2nc(OC[C@@H]3C[C@@H](OC)CN3C)nc3c(F)c(-c4ccc(F)c5sc(N)c(C#N)c45)ncc23)[C@H]1COC (stereo partly shown) [Compound 20] | A (percent of modification ≥70%) | A (percent of modification ≥70%) | A (percent of modification ≥70%) | ≤ 500 | 100 to 1000 |
| C=CC(=O)N1CC[C@@H](N(C)c2nc(OC[C@@]34CCCN3C[C@H](F)C4)nc3nc(-c4ccc(F)c5sc(N)c(C#N)c45)ccc23)C1 [Compound 9, 4-(4-(((R)-1-acryloylpyrrolidin-3-yl)(methyl)amino)-2-(((2R,7aS)-2-fluorotetrahydro-1H-pyrrolizin-7a(5H)-yl)methoxy)pyrido[2,3-d]pyrimidin-7-yl)-2-amino-7-fluorobenzo[b]thiophene-3-carbonitrile] | C (10%≤percent of modification <50%) | C (10%≤percent of modification <50%) | A (percent of modification ≥70%) | ≤ 500 | > 1000 |
| C=CC(=O)N1CC[C@@H](N(C)c2nc(OC[C@@]34CCCN3C[C@H](F)C4)nc3c(F)c(-c4ccc(F)c5sc(N)c(C#N)c45)ncc23)[C@H]1C [Compound 17, 4-(4-(((2R,3R)-1-acryloyl-2-methylpyrrolidin-3-yl)(methyl)amino)-8-fluoro-2-(((2R,7aS)-2-fluorotetrahydro-1H-pyrrolizin-7a(5H)-yl)methoxy)pyrido[4,3-d]pyrimidin-7-yl)-2-amino-7-fluorobenzo[b]thiophene-3-carbonitrile] | A (percent of modification ≥70%) | A (percent of modification ≥70%) | A (percent of modification ≥70%) | ≤ 500 | ≤ 100 |
| C=CC(=O)N1C[C@@H](F)[C@@H](N(CC)c2nc(OC[C@@]34CCCN3C[C@H](F)C4)nc3c(F)c(-c4ccc(F)c5sc(N)c(C#N)c45)ncc23)C1 [Compound 18] | A (percent of modification ≥70%) | A (percent of modification ≥70%) | A (percent of modification ≥70%) | ≤ 500 | ≤ 100 |

From patent publication US20250270206A1, “COMPOSITIONS AND METHODS FOR INHIBITION OF RAS” (TheRas, Inc., priority 2022, published 2025)
